Assay [1] can be described thus: Stage specific vaccinia inhibitors, dry powder dose response, infected cell reporter fluorescence (AID 1053168). Conditions: Vaccinia-infected cells, mCherry/Venus stage reporter fluorescence; at 21 µM (top of the series).
The subject of assay [2] is Vaccinia-infected cells, mCherry/Venus stage reporter fluorescence. Described as above.
The mark [3] stands for this setting: measured here: mCherry reporter AC50.
The mark [4] stands for this setting: measured here: Venus reporter AC50.

This is an account of results in PubChem BioAssay AID1053168 (Broad Institute, 2014).

Calls of active or inactive are those of the source. No rule for the calls is given here. Some results are limits rather than exact numbers.

Regarding `C[C@@H](O)C#Cc1ccc2c(c1)O[C@H](CN(C)Cc1ccccc1)[C@@H](C)CN([C@@H](C)CO)S2(=O)=O`, the activity change, negative = inhibition in assay [1] is -5.1% (inactive). The same molecule yielded an AC50 in assay [2] (setting [3]) above 42 µM.

With `COc1ccccc1CN1CC[C@H]2[C@H](CO)Nc3ccc(-c4ccc(C(=O)N(C)C)cc4)cc3[C@H]21`, the activity change, negative = inhibition in assay [1] is -16.1% (inactive). In addition, the AC50 in assay [2] (setting [3]) is above 42 µM.

For the molecule `CN1c2ccc(-c3ccc(C#N)cc3)cc2[C@@H]2[C@@H](CCN2C(=O)C2CCCCC2)[C@H]1CO`, the activity change, negative = inhibition in assay [1] was -26% (inactive). The molecule further gave an AC50 in assay [2] (setting [4]) above 42 µM.

For `CCCNC(=O)c1cc2c(c(-c3cccc(-c4cccc(F)c4)c3)n1)[C@H](CCO)N([S@@](=O)C(C)(C)C)C2`, the activity change, negative = inhibition in assay [1] was -8.81% (inactive). For the same molecule, the AC50 in assay [2] (setting [3]) was above 42 µM.

With `C[C@H](O)C#Cc1ccc2c(c1)O[C@H](CN(C)Cc1ccc(-c3ccccc3)cc1)[C@H](C)CN([C@@H](C)CO)S2(=O)=O`, in assay [1], the activity change, negative = inhibition is -17.3% (inactive). In addition, the AC50 in assay [2] (setting [4]) and in assay [2] (setting [3]) was above 42 µM throughout.

Take `C[C@H](O)C#Cc1ccc2c(c1)O[C@@H](CN(C)Cc1ccc(-c3ccccc3)cc1)[C@@H](C)CN([C@@H](C)CO)S2(=O)=O`: in assay [1], the activity change, negative = inhibition is -12.2% (inactive). The concentration at half-maximal activity (AC50) in assay [2] (setting [4]) and in assay [2] (setting [3]) was above 42 µM each time.

With `C[C@H](O)C#Cc1ccc2c(c1)O[C@@H](CN(C)Cc1ccc(-c3ccccc3)cc1)[C@H](C)CN([C@H](C)CO)S2(=O)=O`, the activity change, negative = inhibition in assay [1] is -20.1% (inactive). In assay [2] (setting [3]), this molecule showed an AC50 above 42 µM.

The term AC50 denotes the concentration giving half of the maximal activity seen. Read a low AC50 as activity at low concentration.
